In ChEMBL document CHEMBL1201862, “PubChem BioAssay data set” (2004):
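Protocol summary: plate cells (96-well), add compound at 5 concentrations, incubate 48 h, interpolate endpoints linearly. GI50 is the concentration that inhibits growth by half.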 Activity calls are given as the source filed them. No stated cut-off is given here; in the data, active = GI50 up to about 1.1 µM and inactive = higher.

What was measured:
Experiment in all cases: inhibition of tumour cell growth, NCI panel, 48 h
SF-539 = test system: SF-539
A498 = test system: A498
NCI-H460 = test system: NCI-H460
HCT-15 = test system: HCT-15
CCRF-CEM = test system: CCRF-CEM
SF-295 = test system: SF-295
Hs-578T = test system: Hs-578T
NCI-H522 = test system: NCI-H522
ACHN = test system: ACHN
MDA-MB-231 = test system: MDA-MB-231
HT-29 = test system: HT-29
SNB-75 = test system: SNB-75
RXF 393 = test system: RXF 393
UO-31 = test system: UO-31
U-251 = test system: U-251
HCT-116 = test system: HCT-116
MDA-N = test system: MDA-N
SK-OV-3 = test system: SK-OV-3
K562 = test system: K562

Row | Compound | GI50 (SF-539) | GI50 (A498) | GI50 (NCI-H460) | GI50 (HCT-15) | GI50 (CCRF-CEM) | GI50 (SF-295) | GI50 (Hs-578T) | GI50 (NCI-H522) | GI50 (ACHN) | GI50 (MDA-MB-231) | GI50 (HT-29) | GI50 (SNB-75) | GI50 (RXF 393) | GI50 (UO-31) | GI50 (U-251) | GI50 (HCT-116) | GI50 (MDA-N) | GI50 (SK-OV-3) | GI50 (K562)
1 | CCOC(=O)c1c(OCC)[nH]c(=O)c(C(c2cccs2)c2c(O)c(C(=O)OCC)c(OCC)[nH]c2=O)c1O | 6.4 µM (inactive) | 2.67 µM (inactive) | 13.3 µM (inactive) | 14.5 µM | 14.2 µM (inactive) | 12 µM (inactive) | 21 µM (inactive) | 13.8 µM (inactive) | 12.8 µM (inactive) | 11.1 µM (inactive) | 16.1 µM (inactive) | 0.082 µM (active) | 1.7 µM (inactive) | 10.9 µM (inactive) | 12.4 µM (inactive) | 17.5 µM (inactive) | – | – | –
2 | CC(=O)OCC1OC(n2c(N)c(C#N)c(C)c(C#N)c2=S)C(OC(C)=O)C(OC(C)=O)C1OC(C)=O (stereo unspecified) | > 100 µM (inactive) | > 100 µM (inactive) | > 100 µM (inactive) | > 100 µM | > 100 µM (inactive) | > 100 µM (inactive) | > 100 µM (inactive) | > 100 µM (inactive) | > 100 µM (inactive) | – | > 100 µM (inactive) | > 100 µM (inactive) | > 100 µM (inactive) | > 100 µM (inactive) | > 100 µM (inactive) | > 100 µM (inactive) | > 100 µM (inactive) | > 100 µM (inactive) | –
3 | COc1cc(/C=C2\N=C(c3ccccc3)N(c3nc4c(Cl)cc(Cl)cc4s3)C2=O)ccc1O | 41.6 µM (inactive) | 17.8 µM (inactive) | 28.3 µM (inactive) | 31.3 µM | 13.6 µM (inactive) | 34.4 µM (inactive) | 18.2 µM (inactive) | – | 25.8 µM (inactive) | 25.8 µM (inactive) | 27.7 µM (inactive) | 39.3 µM (inactive) | 20.9 µM (inactive) | 27 µM (inactive) | 22.9 µM (inactive) | 24 µM (inactive) | – | 55.7 µM (inactive) | 24.8 µM (inactive)
4 | O=C(Cn1cc(-c2ccccc2)nn1)NC1CCCCC1 | > 100 µM (inactive) | – | > 100 µM (inactive) | > 100 µM | > 100 µM (inactive) | > 100 µM (inactive) | – | > 100 µM (inactive) | > 100 µM (inactive) | > 100 µM (inactive) | > 100 µM (inactive) | > 100 µM (inactive) | – | – | > 100 µM (inactive) | > 100 µM (inactive) | – | – | > 100 µM (inactive)
5 | CS/C(N)=N/c1cccc2ccccc12 | > 10 µM (inactive) | > 10 µM (inactive) | > 10 µM (inactive) | > 10 µM | > 10 µM (inactive) | > 10 µM (inactive) | – | > 10 µM (inactive) | > 10 µM (inactive) | > 10 µM (inactive) | > 10 µM (inactive) | > 10 µM (inactive) | > 10 µM (inactive) | > 10 µM (inactive) | > 10 µM (inactive) | > 10 µM (inactive) | > 10 µM (inactive) | > 10 µM (inactive) | > 10 µM (inactive)
6 | COc1ccc(C(=O)c2nc3ccccc3nc2N2CCN(c3ccccc3)CC2)cc1OC | > 100 µM (inactive) | > 100 µM (inactive) | > 100 µM (inactive) | > 100 µM | > 100 µM (inactive) | > 100 µM (inactive) | > 100 µM (inactive) | > 100 µM (inactive) | > 100 µM (inactive) | – | > 100 µM (inactive) | > 100 µM (inactive) | > 100 µM (inactive) | > 100 µM (inactive) | > 100 µM (inactive) | > 100 µM (inactive) | > 100 µM (inactive) | > 100 µM (inactive) | > 100 µM (inactive)
7 | N#C/C(=C\c1cccc(Br)c1)c1nc2ccccc2c(=O)[nH]1 | 47.9 µM (inactive) | – | > 100 µM (inactive) | > 100 µM | > 100 µM (inactive) | 53.5 µM (inactive) | – | 37.9 µM (inactive) | 54.7 µM (inactive) | 41.7 µM (inactive) | > 100 µM (inactive) | 17.7 µM (inactive) | > 100 µM (inactive) | > 100 µM (inactive) | 40.3 µM (inactive) | > 100 µM (inactive) | > 100 µM (inactive) | > 100 µM (inactive) | > 100 µM (inactive)
8 | CCOc1ccc(/C=N/[N+](C)(C)C)cc1OCC | > 10 µM (inactive) | – | – | > 10 µM | > 10 µM (inactive) | > 10 µM (inactive) | > 10 µM (inactive) | > 10 µM (inactive) | > 10 µM (inactive) | > 10 µM (inactive) | > 10 µM (inactive) | > 10 µM (inactive) | – | – | > 10 µM (inactive) | > 10 µM (inactive) | > 10 µM (inactive) | > 10 µM (inactive) | > 10 µM (inactive)
